From patent US20160374944A1, “COMPOSITIONS AND METHODS FOR TREATING AND PREVENTING CANCER BY TARGETING AND INHIBITING CANCER STEM CELLS” (priority 2011, published 2016)

Assays:
[1] = tested on: Gli1 and Gli2 in pancreatic CSCs; assay: nuclear translocation of Gli1 and Gli2 (immunostaining); format: cell-based, human; conditions: EGCG 40 or 60 μM, 24 h
Experimental: Pancreatic CSCs were treated with or without EGCG (40 or 60 μM) for 24 h. At the end of incubation period, CSCs were fixed with paraformaldehyde, permeabilized with titron X100, and blocked with 5% normal goat serum. Cells were then treated with either anti-Gli1 or anti-Gli2 antibody, followed by secondary antibody plus DAPI. Stained cells were mounted and visualized under a fluorescence microscope. Blue fluorescence of DAPI was changed to red color for a better contrast.

[2] = tested on: Prostate CSCs; assay: prostate CSCs xenografted sub-cutaneously in NSG mice; format: in vivo; conditions: NOD/SCID/IL2R gamma mice, 20 mg/kg, 6 weeks
Experimental: (§1) (A) Pancreatic CSCs were orthotopically implanted in pancreas of NSG mice, and treated with or without sulforaphane 20 mg/kg, for 6 weeks, (B and C) Pancreatic CSCs were xenografted sub-cutaneously in NSG mice, and treated with or without rottlerin and embelin 20 mg/kg, for 6 weeks, (D and E) Prostate CSCs were xenografted sub-cutaneously in NSG mice, and treated with or without rottlerin and embelin 20 mg/kg, for 6 weeks. At the end of the treatment, weights of tumors in treated mice were compared with control mice.

[3] = tested on: Prostate CSCs; assay: apoptosis; format: cell-based, human; conditions: embelin 0-6 μM 48 h; rottlerin 0-2 μM 24 h
Experimental: In particular, embelin is shown to inhibit spheroid and colony formation, and induce caspase-3 and apoptosis. (A) Prostate CSCs were grown in CSC medium and treated with embelin (0-6 μM) for 7 days to obtain primary spheroids. At the end of incubation period, spheroids were collected, reseeded and treated with embelin for another week to obtain secondary spheroids. Cell viability in spheroids was measured by trypan blue assay at the end of 7 and 14 days. […] (B) Prostate CSCs were seeded in soft agar and treated with embelin (0-6 μM) for 21 days. […] (C and D) Activation of caspase-3 and induction of apoptosis is shown.
(A) Prostate CSCs were grown in CSC medium and treated with rottlerin (0-2 μM) for 7 days to obtain primary spheroids. At the end of incubation period, spheroids were collected, reseeded and treated with rottlerin for another week to obtain secondary spheroids. Cell viability in spheroids was measured by trypan blue assay at the end of 7 and 14 days. […] (B) Prostate CSCs were seeded in soft agar and treated with rottlerin (0-2 μM) for 21 days. […] (C and D) Activation of caspase-3 and induction of apoptosis.

[4] = tested on: Prostate CSCs; assay: gene expression by qRT-PCR; format: cell-based, human; conditions: 24 h
Experimental: FIG. 15 is a graph showing that rottlerin inhibits the expression of survivin, XIAP, Bcl-2 and Bcl-XL in prostate CSCs. Prostate CSCs were treated with rottlerin (0-2 μM) for 24 h, and the expression of survivin, XIAP, Bcl-2 and Bcl-XL was measured by the q-RT-PCR. […] Data were normalized with GAPDH.
FIG. 16 is a graph showing the regulation by rottlerin of cMyc, Nanog, Oct3/4 and Sox-2 in prostate CSCs. Prostate CSCs were treated with rottlerin (0-1 μM) for 24 h. The expression of cMyc, Nanog, Oct3/4 and Sox-2 was measured by qRT-PCR. […] Data were normalized with GAPDH.
(§2) FIG. 17 graphs showing the regulation of Shh, Notch and TGFβ pathways by rottlerin. […] The expression of Patched-1, Patched-2, SMO, Gli1 and Gli2 was measured by qRT-PCR. […] Data were normalized with GAPDH. (D) Prostate CSCs were treated with rottlerin (0-1 μM) for 24 h. The expression of Notch1, Notch3 and JAG1 was measured by qRT-PCR. (E) TCF/LEF-1, Gli and Notch reporter activities. Prostate CSCs were transduced with a mixture of TCF/LEF1-, Gli-, or Notch-responsive firefly luciferase construct and Renilla luciferase construct (40:1) along with lipofectamine. After transduction, medium was changed and CSCs were treated with rottlerin (0-2 μM) for 24 h. […] (F) Immunofluorescence analysis of Gli1 and Gli2 expression in prostate CSCs. Green=Gli1 or Gli2; red=nucleus.

[5] = tested on: Gli reporter activity in prostate CSCs; assay: Gli-responsive dual luciferase reporter; format: cell-based, human; conditions: rottlerin 0-2 μM, 24 h, dual luciferase assay
Experimental: as §2

[6] = tested on: Notch reporter activity in prostate CSCs; assay: Notch-responsive dual luciferase reporter; format: cell-based, human; conditions: rottlerin 0-2 μM, 24 h, dual luciferase assay
Experimental: as §2

[7] = tested on: Pancreatic CSCs; conditions: NOD/SCID/IL2R gamma mice, 20 mg/kg, 6 weeks
Experimental: as §1

**Q.** What does the source list for O=C(O[C@@H]1Cc2c(O)cc(O)cc2O[C@@H]1c1cc(O)c(O)c(O)c1)c1cc(O)c(O)c(O)c1 [EGCG, epigallocatechin gallate]?
**A.** nuclear expression of Gli1 protein [1]: inhibited the nuclear expression; nuclear expression of Gli2 protein [1]: inhibited the nuclear expression

**Q.** With CC(=O)c1c(O)c(C)c(O)c(Cc2c(O)c3c(c(C(=O)/C=C/c4ccccc4)c2O)OC(C)(C)C=C3)c1O [rottlerin] as the molecule, how does the “tumor growth (weights of tumors vs control mice)” value [2] read?
**A.** The value was “inhibit tumor growth”.

**Q.** What about the apoptosis [3] of the same molecule?
**A.** The apoptosis was “induces”.

**Q.** What about the “expression of Bcl-2” value ([4]; normalized with GAPDH) of the same molecule?
**A.** Its value is “inhibited the expression”.

**Q.** What about the “expression of Bcl-XL” value ([4]; normalized with GAPDH) of the same molecule?
**A.** The value was “inhibited the expression”.

**Q.** What about the “expression of Gli1” value ([4]; normalized with GAPDH) of the same molecule?
**A.** Its value is “inhibited the expression”.

**Q.** And the “expression of Gli2” value ([4]; normalized with GAPDH)?
**A.** Its value is “inhibited the expression”.

**Q.** What about the “expression of Nanog” value ([4]; normalized with GAPDH) of the same molecule?
**A.** The value was “inhibited the expression”.

**Q.** And the “expression of Oct3/4” value ([4]; normalized with GAPDH)?
**A.** Its value is “inhibited the expression”.

**Q.** And the “expression of Patched-1” value ([4]; normalized with GAPDH)?
**A.** Its value is “inhibited the expression”.

**Q.** And the “expression of Patched-2” value ([4]; normalized with GAPDH)?
**A.** Its value is “inhibited the expression”.

**Q.** What about the “expression of SMO” value ([4]; normalized with GAPDH) of the same molecule?
**A.** The value was “inhibited the expression”.

**Q.** And the “expression of Sox-2” value ([4]; normalized with GAPDH)?
**A.** Its value is “inhibited the expression”.

**Q.** What about the “expression of XIAP” value ([4]; normalized with GAPDH) of the same molecule?
**A.** Its value is “inhibited the expression”.

**Q.** What about the “expression of cMyc” value ([4]; normalized with GAPDH) of the same molecule?
**A.** The value was “inhibited the expression”.

**Q.** And the expression of survivin ([4]; normalized with GAPDH)?
**A.** Its expression of survivin is “inhibited the expression”.

**Q.** And the “expression of JAG1” value ([4]; rottlerin 0-1 μM)?
**A.** The value was “inhibited the expression”.

**Q.** What about the “expression of Notch1” value ([4]; rottlerin 0-1 μM) of the same molecule?
**A.** Its value is “inhibited the expression”.

**Q.** What about the “expression of Notch3” value ([4]; rottlerin 0-1 μM) of the same molecule?
**A.** The value was “inhibited the expression”.

**Q.** And the “Gli responsive reporter activity” value [5]?
**A.** The value was “inhibited the TCF/LEF1, Gli1 and Notch responsive reporter activities in a dose-dependent manner”.

**Q.** What about the “Notch responsive reporter activity” value [6] of the same molecule?
**A.** The value was “inhibited the TCF/LEF1, Gli1 and Notch responsive reporter activities in a dose-dependent manner”.

**Q.** How did the “tumor growth (weights of tumors vs control mice)” value [7] turn out when C[S+]([O-])CCCCN=C=S (centres unmarked) [sulforaphane] was run?
**A.** The value was “inhibit tumor growth”.
